Target: mouse TRPM3α2 (mTRPM3) ion channel (Mus musculus (Mouse), UniProt J9SQF3)
Test: TRPM3 ion channel driven Ca2+ uptake, Fluo-4 AM assay, mTRPM3alpha2 overexpressing flip-in HEK293 cells stimulated with pregnenolone sulfate
Assay type: cell-based
How it was run: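 Read-out is Ca2+ influx via Fluo-4 AM fluorescence at 485/535 nm, taken right after seeding ~2000 cells/well onto compound with 50 μM PS. Inhibition computed from RFU between vehicle-stimulated and positive-control-inhibitor wells; cells were mTRPM3α2-overexpressing flip-in HEK293.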

[1] = PS (50 μM) stimulated, cpds. 400-499
[2] = PS (50 μM) stimulated, cpds. 667-751
[3] = PS (50 μM) stimulated, cpds. 500-599
[4] = PS (50 μM) stimulated, cpds. 608-666
[5] = PS (50 μM) stimulated, cpd 001-199

mouse TRPM3α2 (mTRPM3) ion channel, sequence (J9SQF3 other isoform, or with tags, fused parts or gaps): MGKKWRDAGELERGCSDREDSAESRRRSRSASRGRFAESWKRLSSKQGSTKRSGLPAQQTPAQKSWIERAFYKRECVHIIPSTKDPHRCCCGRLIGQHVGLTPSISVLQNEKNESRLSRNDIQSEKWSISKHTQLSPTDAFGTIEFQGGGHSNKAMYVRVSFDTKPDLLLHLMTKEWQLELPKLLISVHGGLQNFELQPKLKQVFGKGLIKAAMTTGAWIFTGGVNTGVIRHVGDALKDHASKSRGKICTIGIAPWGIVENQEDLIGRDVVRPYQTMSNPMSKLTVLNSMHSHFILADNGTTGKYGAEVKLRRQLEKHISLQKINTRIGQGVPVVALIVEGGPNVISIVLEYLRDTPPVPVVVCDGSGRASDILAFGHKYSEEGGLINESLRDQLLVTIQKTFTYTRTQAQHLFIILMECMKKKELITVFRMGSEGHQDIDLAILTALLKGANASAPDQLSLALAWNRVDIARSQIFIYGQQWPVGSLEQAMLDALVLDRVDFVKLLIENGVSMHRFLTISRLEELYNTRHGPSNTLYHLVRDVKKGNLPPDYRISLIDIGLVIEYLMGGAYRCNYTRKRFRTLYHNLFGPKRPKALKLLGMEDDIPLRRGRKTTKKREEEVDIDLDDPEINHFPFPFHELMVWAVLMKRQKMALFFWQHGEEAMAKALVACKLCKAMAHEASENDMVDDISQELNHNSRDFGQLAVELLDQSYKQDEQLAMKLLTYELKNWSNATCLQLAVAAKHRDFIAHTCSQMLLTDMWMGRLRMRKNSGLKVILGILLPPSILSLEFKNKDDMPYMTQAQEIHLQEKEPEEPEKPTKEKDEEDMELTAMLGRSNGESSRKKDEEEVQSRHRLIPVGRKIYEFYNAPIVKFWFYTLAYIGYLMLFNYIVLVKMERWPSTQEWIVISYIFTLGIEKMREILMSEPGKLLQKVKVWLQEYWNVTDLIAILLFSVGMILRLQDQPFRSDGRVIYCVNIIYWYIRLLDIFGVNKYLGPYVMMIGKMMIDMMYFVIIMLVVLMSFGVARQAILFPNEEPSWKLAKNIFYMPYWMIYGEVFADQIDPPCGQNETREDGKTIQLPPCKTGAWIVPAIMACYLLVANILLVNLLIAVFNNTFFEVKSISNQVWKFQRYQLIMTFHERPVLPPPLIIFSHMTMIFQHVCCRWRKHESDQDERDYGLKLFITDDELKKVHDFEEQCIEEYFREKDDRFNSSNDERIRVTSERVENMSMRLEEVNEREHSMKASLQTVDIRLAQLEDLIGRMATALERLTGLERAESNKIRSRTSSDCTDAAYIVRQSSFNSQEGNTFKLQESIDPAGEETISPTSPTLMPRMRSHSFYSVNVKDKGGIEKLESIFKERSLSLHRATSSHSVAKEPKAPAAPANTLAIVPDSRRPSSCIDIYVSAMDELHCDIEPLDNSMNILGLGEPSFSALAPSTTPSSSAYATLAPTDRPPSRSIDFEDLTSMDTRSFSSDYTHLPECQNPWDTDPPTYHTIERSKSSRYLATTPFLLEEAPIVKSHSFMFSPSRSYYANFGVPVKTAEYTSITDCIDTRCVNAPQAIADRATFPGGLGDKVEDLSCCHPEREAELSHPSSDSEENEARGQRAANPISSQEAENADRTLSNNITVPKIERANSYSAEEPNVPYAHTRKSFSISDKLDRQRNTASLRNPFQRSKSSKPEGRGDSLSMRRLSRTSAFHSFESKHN

**Q.** With Cc1oc2ccc(OCc3ccccn3)cc2c1C(=O)NC1(C(N)=O)CC1 [compound 478, N-(1-carbamoylcyclopropyl)-2-methyl-5-(pyridin-2-ylmethoxy)benzofuran-3-carboxamide] as the compound, how does the IC50 [1] read?
**A.** Its IC50 is < 1 µM.

**Q.** For Cc1oc2ccc(OCc3ccccn3)cc2c1C(=O)N[C@H](C(N)=O)[C@@H](C)O [compound 718, N-((2S,3R)-1-amino-3-hydroxy-1-oxobutan-2-yl)-2-methyl-5-(pyridin-2-ylmethoxy)benzofuran-3-carboxamide], which IC50 [2] is on record?
**A.** Its IC50 is < 1 µM.

**Q.** With Cc1ncsc1COc1cc2c(C(=O)NC3(C(N)=O)COC3)c(C)oc2cc1F [compound 587, N-(3-carbamoyloxetan-3-yl)-6-fluoro-2-methyl-5-((4-methylthiazol-5-yl)methoxy)benzofuran-3-carboxamide] as the compound, how does the IC50 [3] read?
**A.** The IC50 was < 1 µM.

**Q.** How did the IC50 [4] turn out when Cc1ncc(COc2ccc3oc(C)c(C(=O)NC4(CO)CCOCC4)c3c2)s1 [compound 613, N-(4-(hydroxymethyl)tetrahydro-2H-pyran-4-yl)-2-methyl-5-((2-methylthiazol-5-yl)methoxy)benzofuran-3-carboxamide] was run?
**A.** Its IC50 is < 1 µM.

**Q.** How did the IC50 [3] turn out when Cc1ncsc1COc1ccc2oc(C)c(C(=O)NCCC(F)F)c2c1 [compound 574, N-(3,3-difluoropropyl)-2-methyl-5-((4-methylthiazol-5-yl)methoxy)benzofuran-3-carboxamide] was run?
**A.** Its IC50 is < 1 µM.

**Q.** How did the IC50 (PS 50 μM, cpds 300-399) turn out when Cc1oc2cc(F)c(OCc3cccnc3O)cc2c1C(=O)NC1(CO)CCOCC1 [compound 363, 6-fluoro-N-(4-(hydroxymethyl)tetrahydro-2H-pyran-4-yl)-2-methyl-5-((2-oxo-1,2-dihydropyridin-3-yl)methoxy)benzofuran-3-carboxamide] was run?
**A.** The IC50 was < 1 µM.

**Q.** With Cc1oc2ccc(OCc3cccnc3C(F)(F)F)cc2c1C(=O)NC1COCC1(F)F (centres unmarked) [compound 664, N-(4,4-difluorotetrahydrofuran-3-yl)-2-methyl-5-((2-(trifluoromethyl)pyridin-3-yl)methoxy)benzofuran-3-carboxamide] as the compound, how does the IC50 [4] read?
**A.** Its IC50 is < 1 µM.

**Q.** With Cc1ncc(COc2ccc3oc(C)c(C(=O)N[C@@H](CO)C(N)=O)c3c2)o1 [compound 283, (S)-N-(1-amino-3-hydroxy-1-oxopropan-2-yl)-2-methyl-5-((2-methyloxazol-5-yl)methoxy)benzofuran-3-carboxamide] as the compound, how does the IC50 (PS 50 μM, cpds 200-299) read?
**A.** The IC50 was < 1 µM.

**Q.** For Cc1ncsc1COc1ccc2oc(C)c(C(=O)NCC(C)(F)F)c2c1 [compound 500, N-(2,2-difluoropropyl)-2-methyl-5-((4-methylthiazol-5-yl)methoxy)benzofuran-3-carboxamide], which IC50 [3] is on record?
**A.** The IC50 was < 1 µM.

**Q.** Cc1ncsc1COc1ccc2oc(C)c(C(=O)N[C@H](C(N)=O)[C@@H](C)O)c2c1 [compound 378, N-((2S,3R)-1-amino-3-hydroxy-1-oxobutan-2-yl)-2-methyl-5-((4-methylthiazol-5-yl)methoxy)benzofuran-3-carboxamide] was tested. Which IC50 (PS 50 μM, cpds 300-399) did it give?
**A.** The IC50 was < 1 µM.

**Q.** For Cc1ncsc1COc1ccc2oc(C)c(C(=O)NC3(COC(F)F)CC3)c2c1 [compound 400, N-(1-((difluoromethoxy)methyl)cyclopropyl)-2-methyl-5-((4-methylthiazol-5-yl)methoxy)benzofuran-3-carboxamide], which IC50 [1] is on record?
**A.** Its IC50 is < 1 µM.

**Q.** Cc1ncc(COc2ccc3oc(C)c(C(=O)NC(CS(C)(=O)=O)C(N)=O)c3c2)s1 (single isomer, unassigned) [cpd 726-En 1] was tested. Which IC50 [2] did it give?
**A.** Its IC50 is < 1 µM.

**Q.** For Cc1oc2ccc(OCc3cccc(N(C)C)n3)cc2c1C(=O)NC1CCNCC1(F)F (centres unmarked) [compound 071, N-(3,3-difluoropiperidin-4-yl)-5-((6-(dimethylamino)pyridin-2-yl)methoxy)-2-methylbenzofuran-3-carboxamide], which IC50 [5] is on record?
**A.** The IC50 was < 1 µM.

**Q.** Which IC50 [5] does the source give for Cc1oc2ccc(OCc3ccccn3)cc2c1C(=O)NC1CCNCC1(F)F (centres unmarked) [compound 048, N-(3,3-difluoropiperidin-4-yl)-2-methyl-5-(pyridin-2-ylmethoxy)benzofuran-3-carboxamide] here?
**A.** The IC50 was < 1 µM.

**Q.** How did the IC50 (PS 50 μM, cpds 300-399) turn out when Cc1oc2ccc(OCc3cccnc3OC(F)F)cc2c1C(=O)NC1(CO)CCOCC1 [compound 339, 5-((2-(difluoromethoxy)pyridin-3-yl)methoxy)-N-(4-(hydroxymethyl)tetrahydro-2H-pyran-4-yl) -2-methylbenzofuran-3-carboxamide] was run?
**A.** Its IC50 is < 1 µM.

**Q.** Cc1ncc(COc2ccc3oc(C)c(C(=O)NC4(C(N)=O)CCC4)c3c2)s1 [compound 471, N-(1-carbamoylcyclobutyl)-2-methyl-5-((2-methylthiazol-5-yl)methoxy)benzofuran-3-carboxamide] was tested. Which IC50 [1] did it give?
**A.** The IC50 was < 1 µM.

**Q.** Cc1oc2ccc(OCc3cnc(C(C)C)s3)cc2c1C(=O)N[C@@H](CO)C(N)=O [compound 682, (S)-N-(1-Amino-3-hydroxy-1-oxopropan-2-yl)-5-((2-isopropylthiazol-5-yl)methoxy)-2-methylbenzofuran-3-carboxamide] was tested. Which IC50 [2] did it give?
**A.** Its IC50 is < 1 µM.

**Q.** Cc1ncsc1COc1ccc2oc(C)c(C(=O)NC(C)(C)C(=O)NCCO)c2c1 [compound 398, N-(1-((2-hydroxyethyl)amino)-2-methyl-1-oxopropan-2-yl)-2-methyl-5-((4-methylthiazol-5-yl)methoxy)benzofuran-3-carboxamide] was tested. Which IC50 (PS 50 μM, cpds 300-399) did it give?
**A.** The IC50 was < 1 µM.

**Q.** For Cc1oc2ccc(OCc3ccncn3)cc2c1C(=O)NC(C)(CO)CO [compound 429, N-(1,3-dihydroxy-2-methylpropan-2-yl)-2-methyl-5-(pyrimidin-4-ylmethoxy)benzofuran-3-carboxamide], which IC50 [1] is on record?
**A.** Its IC50 is < 1 µM.

**Q.** COc1ncccc1COc1ccc2oc(C)c(C(=O)NC3(CO)CCOC3)c2c1 (single isomer, unassigned) [cpd 536-En 1] was tested. Which IC50 [3] did it give?
**A.** Its IC50 is < 1 µM.

**Q.** How did the IC50 [3] turn out when Cc1ncsc1COc1ccc2oc(C)c(C(=O)NC(=O)C3(N(C)C)COC3)c2c1 [compound 508, N-(3-(dimethylamino)oxetane-3-carbonyl)-2-methyl-5-((4-methylthiazol-5-yl)methoxy)benzofuran-3-carboxamide] was run?
**A.** Its IC50 is < 1 µM.

**Q.** How did the IC50 [5] turn out when Cc1ncsc1COc1ccc2oc(C)c(C(=O)NC3(CO)COC3)c2c1 [compound 142, N-(3-(hydroxymethyl)oxetan-3-yl)-2-methyl-5-((4-methylthiazol-5-yl)methoxy)benzofuran-3-carboxamide] was run?
**A.** The IC50 was < 1 µM.

**Q.** How did the IC50 [5] turn out when Cc1ncsc1COc1ccc2oc(C)c(C(=O)NC3CCOC3)c2c1 (single isomer, unassigned) [cpd 159-En 1] was run?
**A.** Its IC50 is < 1 µM.

**Q.** Cc1oc2ccc(OCc3nccs3)cc2c1C(=O)NC1CCNCC1(F)F (single isomer, unassigned) [cpd 560-En 2] was tested. Which IC50 [3] did it give?
**A.** The IC50 was < 1 µM.

**Q.** How did the IC50 (PS 50 μM, cpds 200-299) turn out when Cc1oc2ccc(OCc3cnc(C(F)(F)F)s3)cc2c1C(=O)N[C@@H](CO)C(N)=O [compound 281, (S)-N-(1-amino-3-hydroxy-1-oxopropan-2-yl)-2-methyl-5-((2-(trifluoromethyl)thiazol-5-yl)methoxy)benzofuran-3-carboxamide] was run?
**A.** Its IC50 is < 1 µM.

**Q.** With Cc1ncc(COc2ccc3oc(C)c(C(=O)NCC(C)(C)F)c3c2)s1 [compound 504, N-(2-fluoro-2-methylpropyl)-2-methyl-5-((2-methylthiazol-5-yl)methoxy)benzofuran-3-carboxamide] as the compound, how does the IC50 [3] read?
**A.** The IC50 was < 1 µM.

**Q.** With Cc1oc2ccc(OCc3cccnc3C(F)(F)F)cc2c1C(=O)OCC1(N)CCOC1 (centres unmarked) [compound 170, (3-aminotetrahydrofuran-3-yl)methyl 2-methyl-5-((2-(trifluoromethyl)pyridin-3-yl)methoxy) -benzofuran-3-carboxylate] as the compound, how does the IC50 [5] read?
**A.** Its IC50 is < 1 µM.

**Q.** For Cc1oc2ccc(OCc3cccnc3C(N)=O)cc2c1C(=O)NC1(CO)CCOCC1 [compound 325], which IC50 (PS 50 μM, cpds 300-399) is on record?
**A.** Its IC50 is 1 to 20 µM.

**Q.** Cc1oc2ccc(OCc3cccnc3O)cc2c1C(=O)NC1CNCCC1(F)F (single isomer, unassigned) [cpd 637-En 1] was tested. Which IC50 [4] did it give?
**A.** The IC50 was < 1 µM.

**Q.** With CNC(=O)C1(NC(=O)c2c(C)oc3ccc(OCc4scnc4C)cc23)CCC1 [compound 319, 2-methyl-N-(1-(methylcarbamoyl)cyclobutyl)-5-((4-methylthiazol-5-yl)methoxy)benzofuran-3-carboxamide] as the compound, how does the IC50 (PS 50 μM, cpds 300-399) read?
**A.** The IC50 was < 1 µM.

**Q.** With Cc1oc2ccc(OCc3cccnn3)cc2c1C(=O)NC1CCNCC1(F)F (single isomer, unassigned) [cpd 557-En 1] as the compound, how does the IC50 [3] read?
**A.** The IC50 was < 1 µM.

**Q.** With Cc1ncsc1COc1ccc2oc(C3CC3)c(C(=O)NC3(CO)CCOCC3)c2c1 [compound 314, 2-cyclopropyl-N-(4-(hydroxymethyl)tetrahydro-2H-pyran-4-yl)-5-((4-methylthiazol-5-yl)methoxy)benzofuran-3-carboxamide] as the compound, how does the IC50 (PS 50 μM, cpds 300-399) read?
**A.** Its IC50 is < 1 µM.

**Q.** For Cc1cc(COc2ccc3oc(C)c(C(=O)N[C@@H](CO)C(N)=O)c3c2)no1 [compound 289, (S)-N-(1-amino-3-hydroxy-1-oxopropan-2-yl)-2-methyl-5-((5-methylisoxazol-3-yl)methoxy)benzofuran-3-carboxamide], which IC50 (PS 50 μM, cpds 200-299) is on record?
**A.** The IC50 was < 1 µM.

**Q.** Cc1ncsc1COc1ccc2oc(C)c(C(=O)NC3(CN(C)C)CCC3)c2c1 [compound 108, N-(1-((dimethylamino)methyl)cyclobutyl)-2-methyl-5-((4-methylthiazol-5-yl)methoxy)benzofuran-3-carboxamide] was tested. Which IC50 [5] did it give?
**A.** The IC50 was < 1 µM.

**Q.** Which IC50 [1] does the source give for Cc1oc2ccc(OCc3cccnc3O)cc2c1C(=O)NC(C)(C)C(N)=O [compound 443, N-(1-amino-2-methyl-1-oxopropan-2-yl)-5-((2-hydroxypyridin-3-yl)methoxy)-2-methylbenzofuran-3-carboxamide] here?
**A.** Its IC50 is < 1 µM.

**Q.** Cc1oc2ccc(OCc3cnccc3Cl)cc2c1C(=O)NC1CCNCC1(F)F (centres unmarked) [compound 068, 5-((4-chloropyridin-3-yl)methoxy)-N-(3,3-difluoropiperidin-4-yl)-2-methylbenzofuran-3-carboxamide] was tested. Which IC50 [5] did it give?
**A.** The IC50 was < 1 µM.

**Q.** Which IC50 [3] does the source give for Cc1oc2ccc(OCc3nccs3)cc2c1C(=O)NC1(C(N)=O)COC1 [compound 582, N-(3-carbamoyloxetan-3-yl)-2-methyl-5-(thiazol-2-ylmethoxy)benzofuran-3-carboxamide] here?
**A.** The IC50 was < 1 µM.

**Q.** Which IC50 [2] does the source give for Cc1ncc(COc2ccc3oc(C)c(C(=O)N[C@@H](CO)C(N)=O)c3c2)cn1 [compound 708, (S)-N-(1-Amino-3-hydroxy-1-oxopropan-2-yl)-2-methyl-5-((2-methylpyrimidin-5-yl)methoxy)benzofuran-3-carboxamide] here?
**A.** Its IC50 is < 1 µM.

Reference: patent publication US12209081B2 (Katholieke Universiteit Leuven, priority 2020, dated 2025)
